Patent US6825018B1, “Sorbitol dehydrogenase, gene encoding the same and use thereof” (priority 1999, dated 2004)

Assays:
Type in all cases: biochemical, Gluconobacter oxydans G624
His-tagged SLDH [1] = molecular target: T1, His-tagged SLDH (Gluconobacter oxydans, UniProt Q9KWR5); assay: SLDH activity: substrate specificity; details: glycine/NaOH buffer pH 10.1, coenzyme NADP+; for Activity: substrate varied
His-tagged SLDH [2] = molecular target: T1, His-tagged SLDH; assay: SLDH activity: coenzyme dependency and active pH range (increase in NAD(P)H, absorbance at 340 nm); details: for Activity: substrate sorbitol, 25° C., coenzyme varied
Method: To a solution containing 0.1 ml of 50 mM NAD^+ (or NADP^+), 0.2 ml of 500 mM buffer, 10 μl of His-tagged SLDH solution (2.1 μg protein) prepared in Example 2(4) and distilled water (0.29 ml) was added to 500 mM sorbitol (0.4 ml) to start the reaction (25° C.), and increase in NADH (or NADPH) was measured by a spectrophotometer (UV-2200; Shimadzu) based on absorbance at 340 nm as an index. For the reaction solutions having pH 10.1 and pH 9.0, glycine/NaOH buffer was used, and for reaction solutions having pH 8.0 and pH 7.0, potassium phosphate buffer was used. The enzyme activity (1 unit) was defined to be an amount to generate 1 μmol of NADH (or NADPH) per minute. The molecular extinction coefficient of NAD(P)H was 6.3 mM^−1 cm^−1. The protein amount was measured with bovine serum albumin (BSA) as a standard by the Lowry method.

His-tagged SLDH [3] = molecular target: T1, His-tagged SLDH; assay: Confirmation of SLDH activity: reaction of purified His-tagged SLDH with sorbitol, product analysis; details: 10 mM (1.82 mg/ml) sorbitol, pH 10.1, 5 mM NADP^+, 25° C., 24 hours
Method: In the same manner as in the above-mentioned (2) except that the cell-free extract to be applied was by 10 ml, the resin after His-tagged SLDH adsorption was washed 6 times, and His-tagged SLDH was eluted with 50 mM imidazole and 100 mM NaCl-containing 20 mM Tris-HCl (5 ml, pH 8.0), His-tagged SLDH was purified. The obtained His-tagged SLDH was reacted with sorbitol and the resulting product was analyzed. The composition of the reaction solution (2 ml) was 10 mM (1.82 mg/ml) sorbitol, 0.1 M glycine/NaOH buffer (pH 10.1), 5 mM NADP^+ and His-tagged SLDH 0.2 ml (41.4 μg protein) and the reaction was carried out at 25° C. for 24 hours. […] Thus, His-tagged SLDH purified by cobalt type IMAC was confirmed to be sorbitol dehydrogenase that oxidizes sorbitol and generates sorbose.

[4] = pH 7.0, potassium phosphate buffer
[5] = pH 8.0, potassium phosphate buffer

T1 sequence (Q9KWR5 entry or part of it): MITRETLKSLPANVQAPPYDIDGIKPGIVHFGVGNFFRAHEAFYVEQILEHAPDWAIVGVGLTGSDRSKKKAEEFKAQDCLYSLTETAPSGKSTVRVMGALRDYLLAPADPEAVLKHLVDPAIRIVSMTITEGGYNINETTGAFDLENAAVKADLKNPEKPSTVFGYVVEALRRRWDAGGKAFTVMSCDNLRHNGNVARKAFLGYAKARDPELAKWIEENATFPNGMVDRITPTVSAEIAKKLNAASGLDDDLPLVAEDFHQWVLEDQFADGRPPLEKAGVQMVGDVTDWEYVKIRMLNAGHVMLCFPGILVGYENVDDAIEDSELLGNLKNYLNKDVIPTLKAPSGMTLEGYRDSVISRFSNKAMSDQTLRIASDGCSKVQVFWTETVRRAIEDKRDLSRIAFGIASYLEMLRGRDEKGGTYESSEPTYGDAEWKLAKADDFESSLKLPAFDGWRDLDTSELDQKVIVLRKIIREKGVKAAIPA

Structure (SMILES)	Use as substrate by SLDH (in words) (His-tagged SLDH [1])	Activity (His-tagged SLDH [1])	further results
OC[C@@H](O)[C@@H](O)[C@@H](O)CO [ribitol]	no action	0 U/mg protein	–
OC[C@@H](O)C(O)[C@H](O)CO [arabitol]	could utilize	88.1 U/mg protein	–
NC(=O)c1ccc[n+]([C@@H]2O[C@H](COP(=O)([O-])OP(=O)(O)OC[C@H]3O[C@@H](n4cnc5c(N)ncnc54)[C@H](OP(=O)(O)O)[C@@H]3O)[C@@H](O)[C@H]2O)c1 [NADP^+]	–	–	Coenzyme specificity (in words) (His-tagged SLDH [2]; NAD^+ versus NADP^+ as coenzyme): higher specificity; Activity (His-tagged SLDH [2]; [4]): 4.2 U/mg protein; Activity (His-tagged SLDH [2]; [5]): 22.9 U/mg protein; Activity (His-tagged SLDH [2]; pH 9.0, glycine/NaOH buffer): 30.0 U/mg protein; Activity (His-tagged SLDH [2]; pH 10.1, glycine/NaOH buffer): 130.2 U/mg protein
O[C@H]1[C@H](O)[C@@H](O)[C@H](O)[C@@H](O)[C@H]1O [inositol]	no action	0 U/mg protein	–
OCC(O)CO [glycerol]	no action	0 U/mg protein	–
O=C(CO)[C@H](O)[C@@H](O)[C@H](O)CO [sorbose]	–	–	sorbose generated (His-tagged SLDH [3]): 1.12 mg/mL
NC(=O)c1ccc[n+]([C@@H]2O[C@H](COP(=O)([O-])OP(=O)(O)OC[C@H]3O[C@@H](n4cnc5c(N)ncnc54)[C@H](O)[C@@H]3O)[C@@H](O)[C@H]2O)c1 [NAD^+]	–	–	Activity (His-tagged SLDH [2]; [4]): 0.1 U/mg protein; Activity (His-tagged SLDH [2]; [5]): 1.2 U/mg protein; Activity (His-tagged SLDH [2]; pH 9.0, glycine/NaOH buffer): 3.4 U/mg protein; Activity (His-tagged SLDH [2]; pH 10.1, glycine/NaOH buffer): 8.1 U/mg protein
OC[C@@H](O)[C@@H](O)[C@H](O)[C@@H](O)CO [sorbitol]	–	130.2 U/mg protein	conversion efficiency (sorbitol to sorbose) (His-tagged SLDH [3]; 41.4 μg protein): 62%; sorbitol remaining (His-tagged SLDH [3]): 0.70 mg/mL
OC[C@@H](O)[C@@H](O)[C@H](O)[C@H](O)CO [mannitol]	could utilize	85.7 U/mg protein	–
OC[C@@H](O)[C@H](O)[C@@H](O)CO [xylitol]	no action	0 U/mg protein	–
